Like-named read-outs stand apart in the source and are kept apart here.
Columns and labels:
[1] = molecular target: human serum albumin (HSA) (Homo sapiens, UniProt P02768); test: HSA fluorescence quenching (Stern-Volmer); type: binding; conditions: for Stern Volmer quenching constant KSV / association constant Ka / bimolecular quenching constant Kq / number of binding sites n: HSA, Hepes pH 7.4; for HSA fluorescence intensity quenched: two molar excesses of complex, 37 °C, 24 h, pH 7.4
Protocol: Stock solutions of HSA were prepared by dissolving HSA in 10 mM Hepes buffer, pH 7.4. The protein concentration was determined spectrophotometrically using the molar absorption coefficient of 36,500 M^−1 cm^−1 at 280 nm. The complexes [P][AuSEt(=S)], [P][AuSEt(=Se)], [P][AuSeiPr(=S)] and [P][AuSBu(=S)] were first prepared at 1 mM concentration in DMSO due to the limited solubility of the complexes in aqueous media. A series of complex–protein solutions were prepared by adding different concentrations of gold complexes solutions to the protein solution previously prepared. After preparation of the batch complex–protein solutions, the final concentration of DMSO was 1%. For fluorescence acquisition, the final HSA concentration was […] and the gold concentrations were […]. The mixtures were stirred to ensure the formation of a homogeneous solution and then kept in an incubator at 37 °C for 24 h in the dark to stabilize and enhance the interaction time. The reference solutions without protein were prepared following the procedures described above.
Steady-state fluorescence measurements were performed with a Fluorolog Model-3.22 spectrofluorimeter from Horiba Jobin Yvon at 25 °C. All the experiments were performed in Hellma® semi-micro fluorescence cuvettes (Suprasil® quartz, path-length 10 × 4 mm, chamber volume […]) with the 10 mm path length for the excitation of the sample. The excitation and emission bandwidths were fixed at 4.0 nm, and the excitation wavelength was 295 nm to excite selectively the tryptophan 214 residue, the emission spectra were recorded from 305 to 550 nm. Buffer solutions of gold complexes in corresponding concentrations were used as reference for the measured fluorescence spectra of protein–complex mixtures. The fluorescence intensities were corrected for the absorption of the exciting light and reabsorption of the emitted light to decrease the inner filter effect using UV–visible absorption data recorded for each sample on a Jasco V-660 spectrophotometer in the range of 260 to 800 nm with 1 mm path quartz cells. More details and all the equations can be found in the SI.
F0 = 1 + (K + K )[Q] + K K [Q]2 (S1) where F0 and F are the fluorescence intensities of HSA in the absence and presence of a quencher (Au complex), respectively; KD and KS represents the dynamic and static constants, respectively, and [Q] is the quencher concentration.
When the fluorescence intensity quenching occurs by a purely static or dynamic mechanism, the following Stern-Volmer equation can be used:
F0 = 1 + K τ [Q] = 1 + K [Q] (S2) where Kq, 0 and KSV represents the bimolecular quenching constant, the fluorophore lifetime in the absence of the quencher and the Stern -Volmer quenching constant, respectively.
The relationship between the fluorescence intensity of the protein and the complex concentrati on is given by the equation:
log (F0 − F) = log K + n log[Q] […]
Table S1. Values of Stern Volmer quenching constant (Ksv), association constant (Ka) and number of binding sites (n) for the interaction for HSA with gold […]

[2] = tested on: A2780 ovarian cancer cells; test: MTT cytotoxicity assay in A2780 (cisplatin sensitive) ovarian cancer cells; type: cell-based, human
Outline: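 Cells in RPMI-1640 with 10% FBS exposed to complexes at 0.01–100 μM for 24 and/or 48 h at 37 °C. Viability by colorimetric MTT; IC50 derived from dose–response curves.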

[3] = tested on: HIV-1 SG3.1; test: Single-round viral infectivity assay in TZM-bl reporter cells; type: cell-based; conditions: SG3.1 isolate, 48 h, in words
Protocol: The HIV-1 SG3.1 subtype B strain was obtained by transfection of HEK293T cells with pSG3.1 plasmid using jetPrime transfection reagent (Polyplus-tranfection SA, Illkirch, France) according to the manufacturer’s instructions. The 50% tissue culture infectious dose (TCID50) of the virus was determined in a single-round viral infectivity assay using a luciferase reporter gene assay in TZM-bl cells and calculated using the statistical method of Reed and Muench.
The antiviral activity of Auranofin, [P][AuSEt(=S)] and [P][AuSBu(=S)] compounds was determined in a single-round viral infectivity assay using TZM-bl reporter cells, as previously described. Briefly, TZM-bl cells were infected with 200 TCID50 of SG3.1 in the presence of serial-fold dilutions of the compounds in growth medium, supplemented with DEAE-dextran. After 48 h of infection, luciferase expression was quantified with Pierce Firefly Luc One-Step Glow Assay Kit (ThermoFisher Scientific, Rockford, IL, USA) according to the manufacturer’s instructions.
At least two independent experiments were performed for each antiviral activity analysis. The assay was set up in triplicate wells. Virus controls and cell controls were used.

[4] = 24 h incubation, read-out: IC50 A2780, 24 h
[5] = 48 h incubation, read-out: IC50 A2780, 48 h

human serum albumin (HSA), sequence (P02768 25-609): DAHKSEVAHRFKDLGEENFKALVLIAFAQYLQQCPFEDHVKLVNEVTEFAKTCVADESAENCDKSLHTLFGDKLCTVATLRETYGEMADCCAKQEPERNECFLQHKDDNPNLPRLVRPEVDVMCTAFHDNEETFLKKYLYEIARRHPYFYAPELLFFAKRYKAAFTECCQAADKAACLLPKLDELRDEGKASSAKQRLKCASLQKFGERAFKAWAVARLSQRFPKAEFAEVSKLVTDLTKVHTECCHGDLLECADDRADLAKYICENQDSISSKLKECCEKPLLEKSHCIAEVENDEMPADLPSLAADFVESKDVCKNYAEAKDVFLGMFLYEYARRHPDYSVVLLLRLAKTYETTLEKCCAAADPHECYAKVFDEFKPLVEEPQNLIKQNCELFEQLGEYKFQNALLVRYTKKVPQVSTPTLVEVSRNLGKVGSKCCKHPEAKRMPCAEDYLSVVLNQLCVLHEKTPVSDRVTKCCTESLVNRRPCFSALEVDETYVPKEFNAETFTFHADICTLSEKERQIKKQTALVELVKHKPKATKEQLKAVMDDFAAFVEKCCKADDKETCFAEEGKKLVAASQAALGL

Row | SMILES | Stern Volmer quenching constant KSV [1] | association constant Ka [1] | bimolecular quenching constant Kq [1] | number of binding sites n [1] | HSA fluorescence intensity quenched [1] [%] | IC50 [2, 4] [µM] | IC50 [2, 5] [µM] | anti-HIV-1 activity [3]
1 | CCn1c2c(sc1=S)[S][Au-]1([S]c3sc(=S)n(CC)c3[S]1)[S]2.c1ccc([P+](c2ccccc2)(c2ccccc2)c2ccccc2)cc1 [[P][AuSEt(=S)]] | 6.48 ± 0.06 x 105 L mol-1 | 1.12 ± 0.02 x 104 L mol-1 | 6.48 ± 0.06 x 1013 L mol-1 s-1 | 1.179 | 76.3 | 0.58 ± 0.2 | 0.18 | none of the compounds presented anti-HIV-1 activity
2 | CC(=O)OC[C@H]1O[C@@H]([S-])[C@H](OC(C)=O)[C@@H](OC(C)=O)[C@@H]1OC(C)=O.CCP(CC)CC.[Au+] [Auranofin, reference compound] | – | – | – | – | – | 2.01 ± 0.71 | – | none of the compounds presented anti-HIV-1 activity
3 | CCn1c2c(sc1=[Se])[S][Au-]1([S]c3sc(=[Se])n(CC)c3[S]1)[S]2.c1ccc([P+](c2ccccc2)(c2ccccc2)c2ccccc2)cc1 [[P][AuSEt(=Se)]] | 5.00 ± 0.17 x 105 L mol-1 | 0.52 ± 0.03 x 104 L mol-1 | 5.00 ± 0.17 x 1013 L mol-1 s-1 | 2.135 | 79.4 | 0.71 ± 0.12 | 0.22 ± 0.11 | –
4 | CCCCn1c2c(sc1=S)[S][Au-]1([S]c3sc(=S)n(CCCC)c3[S]1)[S]2.c1ccc([P+](c2ccccc2)(c2ccccc2)c2ccccc2)cc1 [[P][AuSBu(=S)]] | 14.9 ± 0.13 x 105 L mol-1 | 9.34 ± 0.01 x 104 L mol-1 | 14.9 ± 0.05 x 1013 L mol-1 s-1 | 0.738 | 89.7 | 1.38 ± 0.28 | 0.95 ± 0.05 | none of the compounds presented anti-HIV-1 activity
5 | CC(C)n1c2c(sc1=S)[Se][Au-]1([Se]c3sc(=S)n(C(C)C)c3[Se]1)[Se]2.c1ccc([P+](c2ccccc2)(c2ccccc2)c2ccccc2)cc1 [[P][AuSeiPr(=S)]] | 3.63 ± 0.04 x 105 L mol-1 | 1.52 ± 0.01 x 104 L mol-1 | 3.63 ± 0.01 x 1013 L mol-1 s-1 | 0.957 | 60 | 3.74 ± 1.22 | 0.68 ± 0.18 | –

— article PMC9266914, “Broad Spectrum Functional Activity of Structurally Related Monoanionic Au(III) Bis(Dithiolene) Complexes” (International Journal of Molecular Sciences, 2022)
